In US12012404B2, “Pyrimidoheterocyclic compounds and application thereof” (D3 BIO (WUXI) CO., LTD., priority 2020, dated 2024):
Where a name gives a salt, the structure may show the parent alone.

What was measured:
[1] = tested on: KRAS^G12C-mutated H358 cells; experiment: H358 cell assay: inhibition of proliferation (CellTiter-Glo, 5 days); format: cell-based; conditions: NCI-H358 cells, 5 days incubation
Protocol: Compounds were assayed for IC50 of inhibition of proliferation of KRAS^G12C-mutated H358 cells.
The main instrument used in this assay was a Nivo multi-label analyzer (PerkinElmer).
2.4 Method of the Assay: • 1) NCI-H358 cells were inoculated in a white 96-well plate, and each well contained 80 μL of cell suspension and 4000 NCI-H358 cells. […] The assay was carried out in duplicate. 78 μL of medium was added to the intermediate plate, and then 2 μL of the serially diluted compound was transferred to each well of the intermediate plate according to the corresponding position. After mixing well, 20 μL per well was transferred to the cell plate. […] The cell plate was incubated in a carbon dioxide incubator for 5 days. Another cell plate was prepared, and the signal value of the cell plate was read on the day of compound addition as the maximum value (Max value in the equation below) to participate in data analysis. 25 μL of cell viability chemiluminescence detection reagent was added to each well of the cell plate, and the plate was incubated at room temperature for 10 minutes to stabilize the luminescence signal. A multi-label analyzer was used for reading the plate. • 3) […]

[2] = tested on: KRAS^G12C-mutated MIA-PA-CA-2 cells; experiment: Inhibition of proliferation of KRAS^G12C-mutated MIA-PA-CA-2 cells (CellTiter-Glo, 72 h); format: cell-based, human
Protocol: Compounds were assayed for IC50 of inhibition of proliferation of KRAS^G12C-mutated MIA-PA-CA-2 cells.
The main reagent used in this assay included CellTiter-Glo (Promega, Cat. No. G7573).
The main instrument used in this assay was PerkinElmer EnVision multi-function microplate reader.
1.4 Method of the Assay • 1) Adherent cells were digested with trypsin to form a cell suspension, and the cell suspension was counted for later use. • 2) An appropriate amount of cells was added into a centrifuge tube, and a cell culture medium was added to make up the required volume; then the cells were plated to a 96-well plate at a final density of 2000 cells/well, 100 μL of culture medium. • 3) After incubating for 24 hr, the compound was formulated to 10 mM with DMSO, and serially diluted 3-fold with DPBS (Dulbecco's Phosphate Buffered Saline) to 9 points; 10 μL was added to each well in duplicate. 10 μL of DPBS per well was added to the assay control wells (Con). • 4) On the same day, 50 μL of CellTiter Glo was added to another cell culture plate without compounds, and the fluorescence value was read by EnVision. […] The fluorescence value was read by EnVision. • 6) Data analysis: The inhibition rate of cells in each well was calculated according to the following equation: […]

| IC50 ([1]; Homo sapiens, 120 h) [nM] | IC50 [1] [nM] | IC50 ([2]; Homo sapiens, MIA PaCa-2, 72 h incubation) [nM] | SMILES | IC50 ([2]; 72 h incubation) [nM] |
| --- | --- | --- | --- | --- |
| 32.6 |  |  | C=CC(=O)N1CCN(c2nc(OC[C@@H]3CCCN3C)nc3c2COC(c2c(F)c(N)cc(C)c2C(F)(F)F)C3)[C@H](C)C1 (some centres unmarked) [Compound 13] |  |
|  | 68.2 |  | C=CC(=O)N1CCN(c2nc(OC[C@@H]3CCCN3C)nc3c2CN(C)C(c2cccc4ccccc24)C3)C[C@@H]1CC#N (some centres unmarked) [Compound 1] | 5.21 |
|  | 27 |  | C=CC(=O)N1CCN(c2nc(OCC3CCCN3C)nc3c2CNC(c2c(Cl)c(C)cc4[nH]ncc24)C3)CC1CC#N (single isomer, unassigned) [4B hydrochloride] |  |
|  | 12.9 |  | C=CC(=O)N1CCN(c2nc(OCC3CCCN3C)nc3c2COC(c2c(Cl)c(C)cc4[nH]ncc24)C3)CC1CC#N (single isomer, unassigned) [Compound 5B] |  |
| 1.7 |  | 2.22 | C=C(F)C(=O)N1CCN(c2nc(OCC34CCCN3CCC4)nc3c2COC(c2c(F)c(N)cc(C)c2C(F)(F)F)C3)C[C@@H]1CC#N (some centres unmarked) [Compound 16] |  |
|  | < 4.6 |  | C=C(F)C(=O)N1CCN(c2nc(OCC3CCCN3C)nc3c2COC(c2c(F)c(N)cc(C)c2C(F)(F)F)C3)CC1CC#N (single isomer, unassigned) [8B hydrochloride] | 2.7 |
|  | 19 |  | C=CC(=O)N1CCN(c2nc(OC[C@@H]3CCCN3C)nc3c2COC(c2cccc4cccc(Cl)c24)C3)C[C@@H]1CC#N (some centres unmarked) [Compound 2] |  |
| 70 |  |  | C=CC(=O)N1CCN(c2nc(OC[C@@H]3CCCN3C)nc3c2COC(c2c(F)c(N)cc(C)c2C(F)(F)F)C3)C[C@@H]1C (some centres unmarked) [Compound 10] |  |
| 9.2 |  |  | C=CC(=O)N1CCN(c2nc(OC[C@@H]3CCCN3C)nc3c2COC(c2c(F)c(N)cc(C)c2C(F)(F)F)C3)C[C@H]1C (some centres unmarked) [Compound 15] |  |
|  | < 4.6 |  | C=CC(=O)N1CCN(c2nc(OCC3CCCN3C)nc3c2CN(C)C(c2c(Cl)c(C)cc4[nH]ncc24)C3)CC1CC#N (single isomer, unassigned) [Compound 6A] |  |

| SMILES | IC50 ([1]; Homo sapiens, 120 h) [nM] | IC50 [1] [nM] | IC50 ([2]; Homo sapiens, MIA PaCa-2, 72 h incubation) [nM] | IC50 ([2]; 72 h incubation) [nM] |
| --- | --- | --- | --- | --- |
| C=CC(=O)N1CCN(c2nc(OCC3CC(F)CN3C)nc3c2COC(c2c(F)c(N)cc(C)c2C(F)(F)F)C3)C(C)C1 (single isomer, unassigned) [Compound 9B] |  | 5.5 |  | 6.98 |
| C=CC(=O)N1CCN(c2nc(OCC34CCCN3CCC4)nc3c2COC(c2c(F)c(N)cc(C)c2C(F)(F)F)C3)C(C)C1 (centres unmarked) [Compound 12] |  | 2.5 |  | 1.3 |
| C=CC(=O)N1C[C@H](C)N(c2nc(OC[C@@H]3CCCN3C)nc3c2COC(c2c(F)c(N)cc(C)c2C(F)(F)F)C3)C[C@H]1C (some centres unmarked) [Compound 11] |  | 6.7 |  |  |
| C=CC(=O)N1CCN(c2nc(OCC3CCCN3C)nc3c2COC(c2c(F)c(N)cc(C)c2C(F)(F)F)C3)C(C)C1 (single isomer, unassigned) [Compound 18B] |  | 4.7 |  | 3.29 |
